≈ marks a conversion by molar mass, not a printed value.
Key:
SK-BR-3 = assay: Growth inhibition of human SKBR3 cells; assay type: functional, cell-based
[1] = molecular target: T1, Receptor tyrosine-protein kinase erbB-2 (Homo sapiens, UniProt P04626); assay: Inhibition of HER2 in human MCF-7 cells after 24 hrs by immunoblotting analysis; assay type: cell-based
[2] = molecular target: T1, Receptor tyrosine-protein kinase erbB-2; assay: Inhibition of HER2 in human MCF-7 cells; assay type: cell-based
Estrogen receptor = molecular target: T2, Estrogen receptor (Homo sapiens, UniProt P03372); assay: Inhibition of estrogen receptor in human MCF-7 cells; assay type: cell-based
T2 sequence (P03372 whole entry): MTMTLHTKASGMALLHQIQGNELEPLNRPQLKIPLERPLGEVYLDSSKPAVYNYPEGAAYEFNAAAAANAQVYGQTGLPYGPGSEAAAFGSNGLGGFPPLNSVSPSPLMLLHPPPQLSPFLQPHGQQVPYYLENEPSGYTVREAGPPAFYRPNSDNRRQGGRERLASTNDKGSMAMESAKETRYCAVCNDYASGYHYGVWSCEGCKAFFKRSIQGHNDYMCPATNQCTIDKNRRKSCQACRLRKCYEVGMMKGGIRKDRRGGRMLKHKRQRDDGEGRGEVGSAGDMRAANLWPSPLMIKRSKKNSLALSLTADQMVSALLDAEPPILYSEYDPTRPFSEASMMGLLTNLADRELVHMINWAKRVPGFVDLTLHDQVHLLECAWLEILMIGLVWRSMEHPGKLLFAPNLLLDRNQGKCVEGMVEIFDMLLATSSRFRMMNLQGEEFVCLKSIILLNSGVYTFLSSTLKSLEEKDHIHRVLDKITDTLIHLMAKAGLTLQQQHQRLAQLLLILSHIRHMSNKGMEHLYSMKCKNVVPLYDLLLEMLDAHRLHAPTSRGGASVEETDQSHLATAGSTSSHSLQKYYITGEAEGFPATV

[3] = test system: Mycobacterium tuberculosis; assay: Antitubercular activity against Mycobacterium tuberculosis H37Rv; assay type: functional
DNA [4] = assay: Binding affinity to human estrogen receptor DNA assessed as estrogen receptor PCR product formation; assay type: nucleic-acid assay
DNA [5] = assay: Binding affinity to Ha-ras DNA (unknown origin) assessed as Ha-ras PCR product formation; assay type: nucleic-acid assay
[6] = Cytotoxicity against bovine GM07373 cells assessed as reduction in cell viability after 24 to 72 hrs by MTT assay; assay type: cell-based; conditions: Bos taurus
P338 = assay: Cytotoxicity against mouse […] cells assessed as reduction in cell viability after 24 to 72 hrs by MTT assay; assay type: functional, cell-based
[7] = Cytotoxicity against mouse […] cells assessed as reduction in cell viability after 24 to 72 hrs by MTT assay; assay type: cell-based
IGR-1 = assay: Cytotoxicity against human IGR-1 cells assessed as reduction in cell viability after 24 to 72 hrs by MTT assay; assay type: functional, cell-based
Acetylcholinesterase [8] = molecular target: T3, Acetylcholinesterase (Electrophorus electricus, UniProt O42275); assay: Inhibition of electric eel AChE using acetylthiocholine iodide as substrate measured for 120 secs by spectrophotometric analysis
L1210 = assay: Antiproliferative activity against mouse L1210 cells after 2 to 3 days by Coulter counter method; assay type: functional, cell-based
[9] = molecular target: T4, Phospholipase A2, membrane associated (Homo sapiens) (UniProt P14555); assay: Inhibition of human sPLA2-2A at 100 uM relative to control
T4 sequence (whole entry): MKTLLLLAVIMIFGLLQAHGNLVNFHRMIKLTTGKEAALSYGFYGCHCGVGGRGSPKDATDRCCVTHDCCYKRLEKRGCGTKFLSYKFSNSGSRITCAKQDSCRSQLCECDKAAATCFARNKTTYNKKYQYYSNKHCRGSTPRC

[10] = molecular target: T4, Phospholipase A2, membrane associated (Homo sapiens); assay: Inhibition of human sPLA2-2A assessed as reduction in PGE2 level at 10 uM relative to control
[11] = molecular target: T4, Phospholipase A2, membrane associated (Homo sapiens); assay: Inhibition of human sPLA2-2A assessed as reduction in nitric oxide level at 10 uM relative to control
[12] = molecular target: Acetylcholinesterase (Electrophorus electricus) (UniProt O42275); assay: Potency index, ratio of galantamine IC50 to test compound IC50 for electric eel AChE
Acetylcholinesterase [13] = molecular target: T3, Acetylcholinesterase; assay: Inhibition of electric eel AChE

T1 sequence (P04626 whole entry): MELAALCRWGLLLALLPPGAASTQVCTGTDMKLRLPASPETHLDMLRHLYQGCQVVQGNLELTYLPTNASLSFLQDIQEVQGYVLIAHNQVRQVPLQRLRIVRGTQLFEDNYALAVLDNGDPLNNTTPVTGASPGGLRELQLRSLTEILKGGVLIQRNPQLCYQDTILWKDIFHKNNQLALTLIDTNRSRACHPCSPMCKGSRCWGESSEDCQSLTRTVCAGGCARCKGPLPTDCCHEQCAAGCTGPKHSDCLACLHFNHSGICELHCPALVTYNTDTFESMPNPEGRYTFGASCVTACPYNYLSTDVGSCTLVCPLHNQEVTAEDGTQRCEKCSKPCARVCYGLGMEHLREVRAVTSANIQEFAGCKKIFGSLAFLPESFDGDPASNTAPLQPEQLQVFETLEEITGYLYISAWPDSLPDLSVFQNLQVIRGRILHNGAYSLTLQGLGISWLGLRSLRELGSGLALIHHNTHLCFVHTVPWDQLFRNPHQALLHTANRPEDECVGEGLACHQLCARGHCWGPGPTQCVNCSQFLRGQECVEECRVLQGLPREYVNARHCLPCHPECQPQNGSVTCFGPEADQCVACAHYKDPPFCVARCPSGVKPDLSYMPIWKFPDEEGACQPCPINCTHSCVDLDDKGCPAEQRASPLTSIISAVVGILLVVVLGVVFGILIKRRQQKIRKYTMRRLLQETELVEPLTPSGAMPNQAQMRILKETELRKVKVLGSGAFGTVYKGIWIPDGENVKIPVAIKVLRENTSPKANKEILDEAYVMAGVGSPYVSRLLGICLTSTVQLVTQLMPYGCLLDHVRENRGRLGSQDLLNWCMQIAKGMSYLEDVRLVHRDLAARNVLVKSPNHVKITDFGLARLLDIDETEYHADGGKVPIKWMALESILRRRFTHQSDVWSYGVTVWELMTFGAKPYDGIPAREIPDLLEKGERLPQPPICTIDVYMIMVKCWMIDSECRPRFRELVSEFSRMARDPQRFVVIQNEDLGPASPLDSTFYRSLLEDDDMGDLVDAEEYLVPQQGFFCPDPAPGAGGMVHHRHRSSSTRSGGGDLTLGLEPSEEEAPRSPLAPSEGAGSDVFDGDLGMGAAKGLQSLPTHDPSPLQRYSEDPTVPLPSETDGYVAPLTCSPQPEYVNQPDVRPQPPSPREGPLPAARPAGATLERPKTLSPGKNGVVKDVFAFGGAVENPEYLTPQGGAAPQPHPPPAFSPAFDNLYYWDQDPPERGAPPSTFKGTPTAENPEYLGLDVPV
T3 sequence (O42275 whole entry): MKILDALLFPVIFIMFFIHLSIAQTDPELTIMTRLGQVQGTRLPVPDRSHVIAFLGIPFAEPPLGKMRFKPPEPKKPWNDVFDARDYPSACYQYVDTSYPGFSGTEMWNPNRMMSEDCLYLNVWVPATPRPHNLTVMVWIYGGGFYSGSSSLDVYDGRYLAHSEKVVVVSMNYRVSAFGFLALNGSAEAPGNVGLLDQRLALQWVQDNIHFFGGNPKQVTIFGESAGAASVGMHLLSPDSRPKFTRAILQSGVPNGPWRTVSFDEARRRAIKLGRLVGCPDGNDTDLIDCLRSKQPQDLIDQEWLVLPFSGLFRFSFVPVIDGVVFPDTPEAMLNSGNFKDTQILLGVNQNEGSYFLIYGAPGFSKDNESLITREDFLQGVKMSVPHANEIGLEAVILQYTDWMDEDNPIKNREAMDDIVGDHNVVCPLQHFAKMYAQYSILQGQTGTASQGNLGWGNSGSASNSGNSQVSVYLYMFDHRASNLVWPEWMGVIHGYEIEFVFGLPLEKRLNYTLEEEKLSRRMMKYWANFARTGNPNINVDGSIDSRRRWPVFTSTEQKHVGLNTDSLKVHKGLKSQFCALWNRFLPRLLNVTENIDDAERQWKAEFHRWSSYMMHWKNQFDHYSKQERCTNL
Sequence of Acetylcholinesterase (Electrophorus electricus) (O42275 24-633 limits assumed): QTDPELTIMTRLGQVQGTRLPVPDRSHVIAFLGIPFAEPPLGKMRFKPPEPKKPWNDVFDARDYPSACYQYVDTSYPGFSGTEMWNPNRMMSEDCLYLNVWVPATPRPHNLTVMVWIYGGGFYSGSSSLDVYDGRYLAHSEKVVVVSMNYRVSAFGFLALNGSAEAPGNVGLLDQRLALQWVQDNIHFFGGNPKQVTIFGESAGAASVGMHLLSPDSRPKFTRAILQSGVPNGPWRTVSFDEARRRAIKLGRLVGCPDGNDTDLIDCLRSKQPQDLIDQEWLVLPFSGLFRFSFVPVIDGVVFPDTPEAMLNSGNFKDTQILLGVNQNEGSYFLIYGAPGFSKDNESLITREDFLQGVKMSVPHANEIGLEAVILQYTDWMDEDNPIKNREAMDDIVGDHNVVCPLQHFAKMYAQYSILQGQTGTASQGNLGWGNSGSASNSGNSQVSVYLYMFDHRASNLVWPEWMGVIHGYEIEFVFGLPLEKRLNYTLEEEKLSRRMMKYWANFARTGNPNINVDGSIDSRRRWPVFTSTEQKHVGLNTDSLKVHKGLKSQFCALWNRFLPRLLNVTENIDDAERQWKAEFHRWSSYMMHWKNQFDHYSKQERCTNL

Q: Which results are given for CO[C@H]1/C=C\C=C(/C)C(=O)NC2=CC(=O)C(NCCCCNC3=C4C[C@@H](C)C[C@H](OC)[C@H](O)[C@@H](C)/C=C(\C)[C@H](OC(N)=O)[C@@H](OC)/C=C\C=C(/C)C(=O)NC(=CC3=O)C4=O)=C(C[C@@H](C)C[C@H](OC)[C@H](O)[C@@H](C)/C=C(\C)[C@@H]1OC(N)=O)C2=O?
A: IC50 (SK-BR-3): 20 nM; IC50 [1]: 60 nM

Q: Which IC50 [2] does the source give for CO[C@H]1/C=C\C=C(/C)C(=O)NC2=CC(=O)C(NCC#CCC[C@@H]3C[C@H]4[C@@H]5CCc6cc(O)ccc6[C@H]5CC[C@]4(C)[C@H]3O)=C(C[C@@H](C)C[C@H](OC)[C@H](O)[C@@H](C)/C=C(\C)[C@@H]1OC(N)=O)C2=O (stereo in doubt) here?
A: 100 nM

Q: And the IC50 (Estrogen receptor)?
A: 220 nM

Q: Which MIC [3] does the source give for COC(=O)[C@]1(C)CCC[C@@]2(C)[C@@H]3CC[C@@]4(C)C[C@]3(CC[C@@H]21)C/C4=N\NC(=O)c1cccnc1 here?
A: 10 to 20 µg/mL (≈ 22.1 to 44.3 µM)

Q: Which IC50 (DNA [4]) does the source give for COc1cc2c(cc1OCCC(=O)Nc1cc(C(=O)Nc3cc(C(=O)Nc4cc(C(=O)NCCC(=N)N)n(C)c4)n(C)c3)n(C)c1)N=C[C@@H]1CCCN1C2=O here?
A: 8000 nM

Q: What about the IC50 (DNA [5]) of the same compound?
A: 8000 nM

Q: Which results are given for CC(C)[C@@H](C)/C=C/[C@@H](C)[C@H]1CC[C@H]2c3ccc4c(c3CC[C@]12C)C(=O)c1c(O)ccc(O)c1C4=O?
A: IC50 [6]: 34000 nM; IC50 (P338): 49000 nM; IC50 [7]: 23000 nM; IC50 (IGR-1): 23000 nM

Q: For COc1ccc2c3c1O[C@H]1C[C@@H](O)CC[C@@]31CCN(CCCCCCN1CC[C@@]34C=C[C@H](O)C[C@@H]3Oc3c(OC)ccc(c34)C1)C2, which IC50 (Acetylcholinesterase [8]) is on record?
A: 450 nM

Q: Which MIC [3] does the source give for C[C@@]12CC[C@@H]3[C@@](CC[C@H]4[C@@]3(C)CCC[C@@]4(C)C(=O)O)(C/C1=N\NC(=O)c1ccncc1)C2 here?
A: 10 to 20 µg/mL (≈ 22.9 to 45.7 µM)

Q: Which IC50 (L1210) does the source give for Cc1n[nH]c2c(O)cc3c(c12)C(CCl)CN3C(=O)c1cc(C(=O)Nc2cc(C(=O)Nc3cc(C(=O)Nc4cc(C(=O)NCCC(=N)N)n(C)c4)n(C)c3)n(C)c2)n(C)n1 (centres undefined) here?
A: 7400 nM

Q: Which inhibition [9] does the source give for C[C@@H](C1=CC[C@@H]2[C@@H]3[C@@H](O)[C@H](O)[C@H]4C[C@@H](O)CC[C@]4(C)[C@H]3CC[C@]12C)[C@@H](O)C1=CC(=O)OC1O (some centres undefined) here?
A: 63%

Q: And the inhibition [10]?
A: 72%

Q: What about the inhibition [11] of the same compound?
A: 64%

Q: Which Ratio IC50 [12] does the source give for COc1ccc2c3c1O[C@H]1C[C@@H](O)C=C[C@]31CC[N+](CCCCCCCCCCN1C(=O)c3ccccc3C1=O)=C2 here?
A: 16 to 36

Q: And the IC50 (Acetylcholinesterase [13])?
A: 22 nM

Q: Which IC50 (Acetylcholinesterase [8]) does the source give for COc1ccc2c3c1O[C@H]1C[C@@H](O)CC[C@@]31CCN(CCCCCCCCCCCC[N+]1=Cc3ccc(OC)c4c3[C@@]3(C=C[C@H](O)C[C@@H]3O4)CC1)C2 here?
A: 12 nM

Q: Which MIC [3] does the source give for COC(=O)[C@]1(C)CCC[C@@]2(C)[C@@H]3CC[C@@]4(C)C[C@]3(CC[C@@H]21)C/C4=N\NC(=O)c1ccncc1 here?
A: 10 to 20 µg/mL (≈ 22.1 to 44.3 µM)

Q: For C[C@@]12CC[C@@H]3[C@@](CC[C@H]4[C@@]3(C)CCC[C@@]4(C)C(=O)O)(C/C1=N\NC(=O)c1cccnc1)C2, which MIC [3] is on record?
A: 10 to 20 µg/mL (≈ 22.9 to 45.7 µM)

Q: Which results are given for CO[C@H]1/C=C\C=C(/C)C(=O)NC2=CC(=O)C(NC/C=C/CCC[C@@H]3C[C@H]4[C@@H]5CCc6cc(O)ccc6[C@H]5CC[C@]4(C)[C@H]3O)=C(C[C@@H](C)C[C@H](OC)[C@H](O)[C@@H](C)/C=C(\C)[C@@H]1OC(N)=O)C2=O (stereo in doubt)?
A: IC50 [2]: 100 nM; IC50 (Estrogen receptor): 80 nM

Source: ChEMBL document CHEMBL4229384, “Success stories of natural product-based hybrid molecules for multi-factorial diseases” (Eur J Med Chem, 2018)
